Literature values as cited in publication PMC5306265 (Investigational New Drugs, 2016).

How the values were obtained:
pERK = tested on: pERK; parameters: method as in PMID 18390968, PMID 24178622; details: paired tumor biopsies; cited from earlier work
[1] = tested on: BRAF V600E/K-mutant melanoma; parameters: method as in PMID 22663011, PMID 22805292; details: cited from earlier work

In the case of Cn1cnc2c(F)c(Nc3ccc(Br)cc3Cl)c(C(=O)NOCCO)cc21 [selumetinib], the “geometric mean pERK reduction” value (pERK) is listed as 79%.
In the case of CC(=O)Nc1cccc(-n2c(=O)n(C3CC3)c(=O)c3c(Nc4ccc(I)cc4F)n(C)c(=O)c(C)c32)c1 [trametinib], the response rates [1] is listed as “approximately 20%”.
